Source: patent EP0252983B1, “SALTS OF N-(VINYLOXIETHYL)DITHIOCARBAMIC ACID, METHOD OF OBTAINING THEREOF AND […] ON THEM” (priority 1985, dated 1987)
Like-named read-outs stand apart in the source and are kept apart here.

What was measured:
Larven von Fichtenböcken = assay: Insecticidal activity, topical application to larvae; assay type: in vivo, Fichtenböcke; settings: 10%ige Lösung
Description: Die hohe insektizide Aktivität von Kalium-N-(vinyloxyathyl)dithiocarbamat und Zink-bis-(N-vinyloxyathyl- dithiocarbamat) wurde in Versuchen an Larven von Fichtenböcken nachgewiesen. Geprüft wurden die 10%igen wäßrigen (oder alkoholischen) Lösungen, welche auf die Kopfbrust von Larven aufgebracht wurden. In Versuchen standen je 20 Larven zur Verfügung. Die Versuche wurden dreimal wiederholt. Die Mortalität wurde nach 1, 24 und 48 Stunden ermittelt. Die insektizide Aktivität der erfindungsgemäßen Stoffe ist bedeutend höher als die von Chlorophos.
Die Prüfungen auf insektizide Aktivität werden an Larven von Fichtenböcken durchgeführt. Geprüft werden eine 10%ige wäßrige Lösung von Kalium-N-(vinyloxyäthyl)dithiocarbamat und eine 10%ige alkoholische Lösung von Zink-bis-N-(vinyloxyathyldithiocarbamat). In jedem Versuch stehen je 20 Larven zur Verfügung. Die Mortalität wird nach 1, 24 und 48 Stunden ermittelt. Die zu prüfenden Lösungen werden auf die Kopfbrust von Larven aufgebracht.

Psoroptes cuniculi = assay: Acaricidal activity on isolated mites; assay type: in vivo
Protocol: Die akarizide Aktivität der Stoffe wird an isolierten Milben Psoroptes cuniculi als Erreger der Psoroptesräude bei Kaninchen geprüft. Von frischen Verkrustungen von Kaninchen mit Psoroptesräude, werden zu diesem Zweck 50 Milbenexemplare (Larven, Nymphen, Imago) gewählt und in Petri-Schalen auf ein Filterpapierblatt übertragen. Dann bringt man auf Milben und die ganze Blattoberfläche 1,5 ml zu prüfende wäßrige Stofflösung in destilliertem Wasser auf. Die Schale wird mit Deckel verschlossen und in einen Thermostat bei 30 °C und Feuchtegehalt von 90 % angeordnet. Der Wirkstoff wird als wäßrige Lösung mit einer zwischen 0,0039 und 4 % liegenden Konzentration genommen. Als Vergleichsmuster dient gleichzeitig eine wäßrige Lösung von Chlorophos. Milben werden im Kontrollversuch (Kontrolle auf Lebensfähigkeit)mit 1,5 ml physiologischer Lösung behandelt und in einen anderen Thermostat unter gleichen Temperatur- und Feuchtigkeitsbedingungen aufgestellt.
Nach 1, 2, 4, 6 Stunden und alle 24 Stunden betrachtet man die Milben im Mikroskop und zählt die toten Milben. Aufgrund der Milbenvernichtung durch einen 24-stündigen Kontakt mit dem Wirkstoff ermittelt man die LK-50 Werte. Die Versuche werden 5mal wiederholt. Arithmetische Mittelwerte gibt Tabelle 14 an.

Rhizoctonia solani [1] = assay: Soil fungicide test (fungal discs in treated soil); assay type: cell-based; set-up: key: Das Vorhandensein (+); das Fehlen (-) des wachsenden Myzels um die Scheibe herum; settings: 160 mg/kg Boden
Protocol: (§1) Eine 50 g schwere Bodenprobe bringt man in ein Glasgefäß ein, sterilisiert innerhalb von 2 Stunden unter einem Druck von 2 atm, gibt dann dem Boden das Präparat als wäßrige Lösung ausgehend von 160 mg/kg zu, wonach in den Boden Scheiben mit Kulturen folgender Pilze Fusarium oxysporum, Verticillium dahliae, Rhizoctonia solani, Pythium ultimum untergebracht werden.
(§2) Nach 24 und 48 Stunden werden die Scheiben in fließendem Wasser, dann in sterilem Wasser gewaschen, auf sterilem Filterpapier getrocknet und auf eine reine Agarplatte gelegt. Das Vorhandensein (+) oder das Fehlen (-) des wachsenden Myzels um die Scheibe herum wies auf die Wirksamkeit des Präparats. Als Vergleichsmuster diente dabei Karbathion. Die Prüfergebnisse sind in der Tabelle 5 dargestellt.

Pythium ultimum = assay: Soil fungicide test (fungal discs in treated soil); assay type: cell-based; set-up: key: Das Vorhandensein (+); das Fehlen (-) des wachsenden Myzels um die Scheibe herum; settings: 160 mg/kg Boden
Protocol: as §1, §2

Fusarium oxysporum = assay: Soil fungicide test (fungal discs in treated soil); assay type: cell-based; set-up: key: Das Vorhandensein (+); das Fehlen (-) des wachsenden Myzels um die Scheibe herum; settings: 160 mg/kg Boden
Protocol: as §1, §2

Verticillium dahliae [2] = assay: Soil fungicide test (fungal discs in treated soil); assay type: cell-based; set-up: key: Das Vorhandensein (+); das Fehlen (-) des wachsenden Myzels um die Scheibe herum; settings: 160 mg/kg Boden
Protocol: as §1, §2

Wurzelfäule von Gurken = assay: Cucumber root rot test in treated non-sterile soil; assay type: in vivo; settings: 200 kg/ha Wirkstoff
Description: Man nimmt 100 g unsterilen Boden, enthaltend 1 Teil Humus, 1 Teil Rasenboden, 1 Teil Sand, gibt darin ein Präparat, das Zink-bis-(N-vinyloxyäthyldithiocarbamat) ausgehend von 200 kg/ha Wirkstoff enthält.
Das Präparat wird wie folgt hergestellt: Einer gesättigten Lösung des genannten Salzes in Azeton gibt man einige Tropfen Emulgiermittel (hydroxyäthylierte Alkylphenole) zu und verdünnt mit Wasser. Innerhalb von 7 bis 8 Tagen begießt man dann bodenhaltige Gefäße mit Wasser, bis der Boden in einen Zustand gebracht wird, der 60% der vollen Wasseraufnahmekapazität des Feldes beträgt. Nach dieser Zeit erfolgt die Aussaat von Gurkensamen, eingequollen im voraus in einer 0,1%igen KMn04-Lösung innerhalb von 2 Stunden. In jedes Gefäß werden je 10 Samen auf eine Tiefe von 1 bis 1,5 cm gesät. Nach 7 bis 9 Tagen berücksichtigt man die Keimungsfähigkeit von Samen, dann bestimmt man nach 3 Tagen den Befallumfang von Pflanzen durch Wurzelfäule, hervorgerufen durch einen Erregerkomplex. Die Versuche werden viermal wiederholt, als Vergleichsmuster dient Milon. Die Prüfergebnisse zeigt Tabelle 9.

Penicillium funiculosum = assay: Mycelial growth inhibition on agar (contact activity); assay type: cell-based; settings: Talaromyces funiculosus, 120 h, Wirkstoffkonzentration 0,003 %
Protocol: (§3) Die Prüfungen werden nach dem Verfahren zur Ermittlung der Kontaktaktivität durchgeführt. Man verwendet das in Wasser gelöste Kalium-N-(vinyloxyäthyl)dithiocarbamat, führt es in ein Nährmedium ein und vergießt auf Petri-Schalen. Nach 24 Stunden wird mit Pilzmyzelium nach einem Stichverfahren geimpft. Dann temperiert man die Schalen innerhalb von 5 Tagen bei einer zwischen 24 und 26 °C liegenden Temperatur und mißt den Durchmesser von Pilzkolonien, ermittelt den Prozentsatz der Hemmung des Myzelwachstums (S) ausgehend von Angaben am 5. Tag nach der Abbott-Formel [drawing 13] worin dc für den Durchmesser der Pilzkolonien, de für den Durchmesser von Pilzkolonien in der Schale stehen, wo ein die zu prüfenden Stoffe enthaltendes Medium vorhanden ist. Dieses Verfahren zur Ermittlung der mikrobiologischen Aktivität ist in anderen Beispielen verwendet.

Paecilomyces varioti = assay: as above; assay type: cell-based; settings: Paecilomyces, 120 h, Wirkstoffkonzentration 0,003 %
Protocol: as §3

Stereum hirsutum = assay: as above; assay type: cell-based; settings: Stereum hirsutum, 120 h, Wirkstoffkonzentration 0,003 %
Protocol: as §3

Aspergillus niger = assay: as above; assay type: cell-based
Chaetomium globosum = assay: as above; assay type: cell-based; settings: Chaetomium globosum, 120 h; Wirkstoffkonzentration 0,003 %; Tabelle 3; read-out: Mycelhemmung, in %
Protocol: as §3

Rhizoctonia solani [3] = assay: as above; assay type: cell-based; settings: Rhizoctonia solani, 120 h; Wirkstoffkonzentration 0,003 %; Würzeagar; Tabelle 7; read-out: Myzelhemmung in %
Protocol: as §3
Die fungizide Aktivität von Zink-bis-(N-vinyloxyäthyldithiocarbamat) gegen reine Kulturen von Pilzen Fusarium moniliforme, Fusarium sambucinum, Aspergillus niger, Rhizoctonia solani, Cladosporium resinae, Cladosporium cladosporioides, Acremonium cowum, Acremonium charticola, Penicillium chrysogenum, Penicillium charlesii Smith, Penicillium funiculosum, Geotrichum candidum Link, Walrotiela subiculesa, Oidium sp., Paecilomyces varioti, Stereum hirsutum wird gemäß Beispiel 8 untersucht.
(§4) Als Nährmedium dient Würzeagar.

Sphaeropsis malorum = assay: as above; assay type: cell-based; settings: 120 h; Wirkstoffkonzentration 0,003 %; Würzeagar; Tabelle 7; read-out: Myzelhemmung in %
Protocol: as §3, §4

Fusarium moniliforme = assay: as above; assay type: cell-based
Protocol: as §3
(§5) Tabelle 2 zeigt die Angaben für die fungizide Aktivität von Kalium-N-(vinyloxyäthyl)dithiocarbamat und bekannten wirksamen Fungiziden Poly arbazin und TMTD. Der zu prüfende Stoff wurde im Laufe der Versuche in Wasser aufgelöst, und die Kulturen wurden auf einem Kartoffel-Glukose-Nährmedium gezüchtet.

Venturia inaegualis = assay: as above; assay type: cell-based; settings: 120 h, Kartoffel-Glukose-Nährmedium, read-out: Myzelhemmung in %
Protocol: as §3, §5

Botrytis cinerea = assay: as above; assay type: cell-based; settings: 120 h, Kartoffel-Glukose-Nährmedium, read-out: Myzelhemmung in %
Protocol: as §3, §5

Verticillium dahliae [4] = assay: as above; assay type: cell-based; settings: 120 h, Kartoffel-Glukose-Nährmedium, read-out: Myzelhemmung in %
Protocol: as §3, §5

Fusarium sambucinum = assay: as above; assay type: cell-based
Protocol: as §3, §5

[5] = Würzeagar, Tabelle 8, read-out: Myzelhemmung in %
[6] = Tabelle 3, read-out: Mycelhemmung, in %
[7] = Wirkstoffkonzentration 0,003 %, Würzeagar, Tabelle 7

COP(=O)(OC)C(O)C(Cl)(Cl)Cl (stereo not drawn) [Chlorophos, O,O-Dimethyl-(1-oxy-2,2,2-trichloräthyl)phosphonat, reference compound]
Mortalität von Larven der Fichtenböcke (Larven von Fichtenböcken; Wirkungsdauer 1 Stunde): 0% | Mortalität von Larven der Fichtenböcke (Larven von Fichtenböcken; Wirkungsdauer 24 Stunden): 20% | Mortalität von Larven der Fichtenböcke (Larven von Fichtenböcken; Wirkungsdauer 48 Stunden): 57% | LK-50 % (Psoroptes cuniculi; 24-stündiger Kontakt mit dem Wirkstoff): 0,8% | Vernichtung von 100 % der Milben nach Stunden (Psoroptes cuniculi; Konzentration 0,5 bis 1,0 %): 48 Stunden | Vernichtung von 100 % der Milben nach Stunden (Psoroptes cuniculi; Konzentration 0,25 %): 72 Stunden

CNC(=S)[S-].[Na+] [Karbathion, reference compound]
wachsendes Myzel um die Scheibe (Rhizoctonia solani [1]; Haltedauer 24 Stunden): - | wachsendes Myzel um die Scheibe (Rhizoctonia solani [1]; Haltedauer 48 Stunden): - | wachsendes Myzel um die Scheibe (Pythium ultimum; Haltedauer 24 Stunden): - | wachsendes Myzel um die Scheibe (Pythium ultimum; Haltedauer 48 Stunden): - | wachsendes Myzel um die Scheibe (Fusarium oxysporum; Haltedauer 24 Stunden): - | wachsendes Myzel um die Scheibe (Fusarium oxysporum; Haltedauer 48 Stunden): - | wachsendes Myzel um die Scheibe (Verticillium dahliae [2]; Haltedauer 24 Stunden): - | wachsendes Myzel um die Scheibe (Verticillium dahliae [2]; Haltedauer 48 Stunden): -

CN1CSC(=S)N(C)C1 [Milon, 3,5-Dimethyltetrahydro-1,3,5-thiadizin-1-thion-2, reference compound]
Keimungshäufigkeit in % (Wurzelfäule von Gurken; Gurkensamen): 70,3% | Entwicklung von Krankheiten in % (Wurzelfäule von Gurken; Wurzelfäule von Gurken): 0%

Oc1c(Cl)c(Cl)c(Cl)c(Cl)c1Cl [Pentachlorphenol, reference compound]
inhibition of growth at 0.003 % (Penicillium funiculosum; [5]): 100% | inhibition of growth at 0.003 % (Paecilomyces varioti; [5]): 100% | inhibition of growth at 0.003 % (Stereum hirsutum; [5]): 100% | inhibition of growth at 0.003 % (Aspergillus niger; Aspergillus niger, 120 h, Wirkstoffkonzentration 0,003 %, Würzeagar, Tabelle 8, read-out: Myzelhemmung in %): 100%

O=C(Nc1ccccc1)c1ccccc1O [Salizylanilid, reference compound]
inhibition of growth at 0.003 % (Chaetomium globosum): 100% | inhibition of growth at 0.003 % (Penicillium funiculosum; [6]): 100% | inhibition of growth at 0.003 % (Paecilomyces varioti; [6]): 100% | inhibition of growth at 0.003 % (Stereum hirsutum; [6]): 100% | inhibition of growth at 0.003 % (Aspergillus niger; Aspergillus niger, 120 h, Wirkstoffkonzentration 0,003 %, Tabelle 3, read-out: Mycelhemmung, in %): 100%

CN(C)C(=S)SSC(=S)N(C)C [TMTD, Tetramethylthiuramdisulfid, reference compound]
inhibition of growth at 0.003 % (Rhizoctonia solani [3]): 100% | inhibition of growth at 0.003 % (Sphaeropsis malorum): 100% | inhibition of growth at 0.01 % (Fusarium moniliforme; Fusarium verticillioides, 120 h, Wirkstoffkonzentration 0,01 %, Kartoffel-Glukose-Nährmedium, read-out: Myzelhemmung in %): 100% | inhibition of growth at 0.003 % (Fusarium moniliforme; Fusarium verticillioides, 120 h, Wirkstoffkonzentration 0,003 %, Kartoffel-Glukose-Nährmedium, read-out: Myzelhemmung in %): 100% | Myzelhemmung in % (Fusarium moniliforme; [7]): 100% | inhibition of growth at 0.01 % (Venturia inaegualis; Wirkstoffkonzentration 0,01 %): 100% | inhibition of growth at 0.003 % (Venturia inaegualis; Wirkstoffkonzentration 0,003 %): 100% | inhibition of growth at 0.01 % (Botrytis cinerea; Wirkstoffkonzentration 0,01 %): 100% | inhibition of growth at 0.003 % (Botrytis cinerea; Wirkstoffkonzentration 0,003 %): 100% | inhibition of growth at 0.01 % (Verticillium dahliae [4]; Wirkstoffkonzentration 0,01 %): 100% | inhibition of growth at 0.003 % (Verticillium dahliae [4]; Wirkstoffkonzentration 0,003 %): 100% | inhibition of growth at 0.01 % (Fusarium sambucinum; Fusarium sambucinum, 120 h, Wirkstoffkonzentration 0,01 %, Kartoffel-Glukose-Nährmedium, read-out: Myzelhemmung in %): 100% | inhibition of growth at 0.003 % (Fusarium sambucinum; Fusarium sambucinum, 120 h, Wirkstoffkonzentration 0,003 %, Kartoffel-Glukose-Nährmedium, read-out: Myzelhemmung in %): 100% | Myzelhemmung in % (Fusarium sambucinum; [7]): 100% | inhibition of growth at 0.01 % (Aspergillus niger; Aspergillus niger, 120 h, Wirkstoffkonzentration 0,01 %, Kartoffel-Glukose-Nährmedium, read-out: Myzelhemmung in %): 100% | inhibition of growth at 0.003 % (Aspergillus niger; Aspergillus niger, 120 h, Wirkstoffkonzentration 0,003 %, Kartoffel-Glukose-Nährmedium, read-out: Myzelhemmung in %): 100% | Myzelhemmung in % (Aspergillus niger; [7]): 100%
